Numbered stars: 1 amine (or outer) side, 2 acyl side, 3 side chain; on linkers, the order of the positions; unused ones are H or OH. Square brackets hold non-standard residues; d marks the D form. Peptide text beside a SMILES is read from it. * marks the point of attachment. ξ: configuration not given here. X20 = O=C(CCCCCO[C@@H]1O[C@H](CO)[C@@H](O)[C@H](O)[C@H]1N[*:1])[*:2]; Acetyl(3-pyridyl) = O=C(Cc1cccnc1)*; Pyrazinecarbonyl = O=C(c1cnccn1)*; NMeF = CN[C@@H](Cc1ccccc1)C(=O)O; Cha = N[C@@H](CC1CCCCC1)C(=O)O; ξAtc = NC1(C(=O)O)CCc2ccccc2C1; NMeL = CN[C@@H](CC(C)C)C(=O)O; Phg = N[C@H](C(=O)O)c1ccccc1; NMeV = CN[C@H](C(=O)O)C(C)C; Nicotinoyl = O=C(c1cccnc1)*; Morpholide = C1CN(*)CCO1; Piperidide = C1CCN(*)CC1; PhAc = O=C(Cc1ccccc1)*; OtBu = CC(C)(C)O*; tBu = CC(C)(C)*
target: VLA-4 (Homo sapiens, UniProt P05556+P13612); assay: In vitro binding inhibition of 51Cr-labeled Jurkat cells to solid phase-bound CS-1 compound (SEQ ID NO:1); format: cell-based; design: inflammatory cells that contain the VLA-4 receptor [Jurkat cells; host or cells: Jurkat (human T lymphoblastic line); settings: not given
Protocol: Binding inhibition is measured here as a concentration of compound that inhibits one-half the binding between a standard number of Jurkat cells and a standard amount of CS-1 compound bound to the surface of a microtiter plate well. Those concentrations are conveniently expressed as IC50 values, smaller numbers indicating a lower concentration required to inhibit 50 percent binding and therefore greater potency. Further specifics of this assay are provided hereinafter.
Jurkat cells (ATCC TIB 152), a human T lymphoblastic line, labeled with ^51 chromium were used to assay in vitro binding inhibition provided by various compounds discussed herein.
The plates were prepared as follows: The 25-mer CS-1 compound (SEQ ID NO:1) dissolved at 0.5-1 μg/ml in a buffer of 0.1M NaHCO3 at pH 9.5 that also contained 10 μg/ml of bovine serum albumin (BSA) or a conjugate of the CS-1 compound linked to […] (CS-1-OVA) dissolved at 1-2.5 μg/ml in the same buffer was used as the substrate. Each well of the microtiter plates was coated with 50 μl of substrate or buffer alone for controls. The wells were permitted to dry out completely and were then rinsed twice with PBS at pH 7.4. Non-specific binding sites of each well were then blocked using 200 μl per well of RPMI/1 percent BSA for two hours at room temperature.
Jurkat cells (3-5×10^6 cells) were placed into a 15 ml Falcon™ round-bottom tube with a cap. The tube was centrifuged, and the extra medium was then removed.
Two hundred microliters of a ^51 Cr labeling solution were added to the centrifuged cells and maintained in contact with the cells for 90-120 minutes in a warm room. […] Longer contact times provide a greater amount of labeling but lower cell viability.
The labeled cells are washed with (i) complete medium, (ii) 1 mM EDTA/PBS and then (iii) RPM1/1 percent BSA free of serum components. The cells are centrifuged after each washing. The cells are finally resuspended in serum-free RPMI/1 percent BSA at a concentration of 1×10^6 viable cells/ml, which provides a concentration that is diluted by one-half in the assay.
Inhibitor compounds are prepared as stock solutions at 20 mg/ml in DMSO in 1.5 ml cryogenic screwcap vials, and were stored at -70° C. Using Flow™ round-bottom or V-bottom microtiter plates, the inhibitor compounds were prepared at twice the assay concentration in RPMI/1 percent BSA at 60 μl/well.
Four initial dilutions were typically used.
The ^51 Cr-labeled cells ([…] at 60 μl/well) were then admixed with the diluted compound solutions. The admixtures were maintained at room temperature (about 22° C.) for 30 minutes.
One hundred microliters of each inhibitor compound/cell admixture were transferred to the substrate-coated wells. This was done in triplicate for each dilution. The resulting plates were incubated for 30 minutes at 37° C. and then washed gently three times with RPMI/1 percent BSA at 200 μl/well. Binding was observed microscopically, particularly after the second wash.
The bound cells were then lysed by the addition of a 0.5 percent solution of sodium dodecylsulfate in water at 100 μl/well. The resulting solutions were then processed for counting and calculation of IC50 values following usual procedures.
The data of Table 1 are normalized to the binding of SEQ ID NO: 3. […] Multiple assays for the same compound were averaged.

Chain of VLA-4 (P13612 34-1032): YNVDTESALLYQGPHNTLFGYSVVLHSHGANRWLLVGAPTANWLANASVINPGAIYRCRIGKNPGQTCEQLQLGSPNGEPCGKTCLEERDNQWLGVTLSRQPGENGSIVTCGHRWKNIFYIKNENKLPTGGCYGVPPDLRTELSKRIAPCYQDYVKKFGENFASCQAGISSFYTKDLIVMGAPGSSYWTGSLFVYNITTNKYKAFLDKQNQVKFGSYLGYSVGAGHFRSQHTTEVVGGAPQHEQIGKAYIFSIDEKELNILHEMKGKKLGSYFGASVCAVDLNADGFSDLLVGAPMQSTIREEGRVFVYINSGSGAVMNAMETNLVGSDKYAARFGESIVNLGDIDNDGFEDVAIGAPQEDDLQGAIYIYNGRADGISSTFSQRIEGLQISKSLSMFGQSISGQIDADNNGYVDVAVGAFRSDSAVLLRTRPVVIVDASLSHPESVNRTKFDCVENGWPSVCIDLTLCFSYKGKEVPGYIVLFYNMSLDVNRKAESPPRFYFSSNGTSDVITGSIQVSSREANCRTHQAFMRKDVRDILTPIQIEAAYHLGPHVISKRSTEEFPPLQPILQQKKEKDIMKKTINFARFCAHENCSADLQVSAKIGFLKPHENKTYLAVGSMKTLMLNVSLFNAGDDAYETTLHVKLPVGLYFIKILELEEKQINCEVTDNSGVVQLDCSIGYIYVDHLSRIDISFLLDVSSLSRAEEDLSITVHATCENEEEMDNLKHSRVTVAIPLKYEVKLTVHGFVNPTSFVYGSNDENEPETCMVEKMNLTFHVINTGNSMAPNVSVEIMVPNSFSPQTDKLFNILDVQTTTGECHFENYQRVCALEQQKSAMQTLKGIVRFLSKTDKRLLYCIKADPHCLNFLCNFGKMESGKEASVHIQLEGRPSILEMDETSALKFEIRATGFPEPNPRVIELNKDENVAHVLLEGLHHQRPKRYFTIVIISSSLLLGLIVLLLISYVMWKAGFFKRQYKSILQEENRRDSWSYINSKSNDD
Chain of VLA-4 (P05556 21-798): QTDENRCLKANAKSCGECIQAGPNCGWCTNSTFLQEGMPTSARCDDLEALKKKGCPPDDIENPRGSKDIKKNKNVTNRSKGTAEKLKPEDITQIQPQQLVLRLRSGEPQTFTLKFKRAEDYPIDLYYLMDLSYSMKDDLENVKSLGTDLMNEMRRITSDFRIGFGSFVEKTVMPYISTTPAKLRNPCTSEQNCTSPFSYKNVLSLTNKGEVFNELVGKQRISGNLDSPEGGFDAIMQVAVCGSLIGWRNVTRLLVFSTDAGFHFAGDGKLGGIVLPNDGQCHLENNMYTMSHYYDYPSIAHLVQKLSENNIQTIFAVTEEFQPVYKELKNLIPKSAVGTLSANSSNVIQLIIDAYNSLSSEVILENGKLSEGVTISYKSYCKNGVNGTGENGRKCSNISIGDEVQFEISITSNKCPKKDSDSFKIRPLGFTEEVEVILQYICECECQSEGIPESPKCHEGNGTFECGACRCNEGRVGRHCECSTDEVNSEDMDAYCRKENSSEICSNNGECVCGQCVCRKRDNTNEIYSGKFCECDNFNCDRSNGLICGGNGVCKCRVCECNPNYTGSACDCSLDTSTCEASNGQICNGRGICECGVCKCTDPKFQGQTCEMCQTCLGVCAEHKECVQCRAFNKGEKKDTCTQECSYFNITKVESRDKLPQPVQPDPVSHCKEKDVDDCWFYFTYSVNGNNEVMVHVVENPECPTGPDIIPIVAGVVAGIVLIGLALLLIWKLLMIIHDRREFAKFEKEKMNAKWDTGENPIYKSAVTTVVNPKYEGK

Row | SMILES | Relative Potency
1 | CC(C)CC(C(=O)NCc1ccccc1)C(=O)N[C@@H](CC(=O)O)C(=O)N[C@@H](Cc1ccccc1)C(=O)N1CCCCC1 (some centres unmarked) [1034.02] | 0
2 | CC[C@H](C)[C@H](N)C(=O)N[C@@H](CC(C)C)C(=O)N[C@@H](CC(=O)O)C(=O)N[C@H](C(=O)N1CCC[C@@H]1C(N)=O)C(C)C [886.10] | 5.38
3 | CC(C)C[C@H](NC(=O)Cc1cccnc1)C(=O)N[C@@H](CC(=O)O)C(=O)N[C@@H](Cc1ccccc1)C(=O)N1CCC[C@@H]1C(N)=O [951.22] ({Acetyl(3-pyridyl)}-LDF[dP]-NH2) | 387
4 | CC(C)[C@@H]1CC[C@@H](C)C[C@H]1OCC(=O)N[C@@H](CC(=O)O)C(=O)N[C@@H](Cc1ccccc1)C(=O)N1CCC[C@@H]1C(N)=O [1056.06] | 0
5 | CC(C)C[C@@H](C(=O)N[C@@H](CC(=O)O)C(=O)N[C@H](C(=O)N1CCC[C@@H]1C(N)=O)C(C)C)N1C(=O)c2ccccc2C1=O [896.51] | 110
6 | CC(C)C[C@@H](C(=O)N1C(=O)N([C@@H](Cc2ccccc2)C(=O)N2CCCCC2)C(=O)[C@@H]1CC(=O)O)N1C(=O)c2ccccc2C1=O [1047.03] | 0
7 | NC(=O)[C@H]1CCCN1C(=O)[C@H](Cc1ccccc1)NC(=O)[C@H](CC(=O)O)NC(=O)CCCCC1CCCCC1 [1056.08] | 0
8 | CC(C)C[C@@H](C(=O)N[C@@H](CC(=O)O)C(=O)N[C@@H](Cc1ccccc1)C(=O)N1CCCCC1)N1C(=O)N[C@@H](c2ccccc2)C1=O [1047.02] | 3.13
9 | CC(C)C[C@H](NC(=O)c1cccnc1)C(=O)N[C@@H](CC(=O)O)C(=O)N[C@@H](Cc1ccccc1)C(=O)N1CCC[C@@H]1C(N)=O [896.55] (Nicotinoyl-LDF[dP]-NH2) | 105
10 | CC(C)C[C@H](NC(=O)C1CCCCC1)C(=O)N[C@@H](CC(=O)O)C(=O)N[C@H](C(=O)N1CCC[C@@H]1C(N)=O)C(C)C [896.49] | 9.08
11 | CC(=O)N[C@H]1[C@H](OCCCCCC(=O)N[C@@H](Cc2ccccc2)C(=O)N[C@@H](CC(C)C)C(=O)N[C@@H](CC(=O)O)C(=O)N[C@@H](Cc2ccccc2)C(=O)N2CCCCC2)O[C@H](CO)[C@@H](O)[C@@H]1O [1063.01] (Ac-[X20]FLDF-Piperidide) | 40.7
12 | CC[C@H](C)[C@H](N)C(=O)N[C@@H](CC(C)C)C(=O)N[C@@H](CC(=O)O)C(=O)N(C)[C@H](C(=O)N1CCC[C@H]1C(N)=O)C(C)C [926.18] (H-ILD[NMeV]P-NH2) | 0
13 | CC(C)C[C@H](NCc1ccccc1)C(=O)N[C@@H](CC(=O)O)C(=O)N[C@@H](Cc1ccccc1)C(=O)N1CCCCC1 [1033.01] | 5.84
14 | CC(C)C[C@H](NC(=O)c1cnccn1)C(=O)N[C@@H](CC(=O)O)C(=O)N[C@@H](Cc1ccccc1)C(=O)N1CCC[C@@H]1C(N)=O [951.02] (Pyrazinecarbonyl-LDF[dP]-NH2) | 19.4
15 | CC[C@H](C)[C@H](N)C(=O)N[C@@H](CC1CCCCC1)C(=O)N[C@@H](CC(=O)O)C(=O)N[C@@H](Cc1ccccc1)C(=O)N1CCC[C@@H]1C(N)=O [896.29] (H-I[Cha]DF[dP]-NH2) | 2.27
16 | CC(C)C[C@H](NC(=O)CCC1CCCCC1)C(=O)N[C@@H](CC(=O)O)C(=O)N[C@H](C(=O)N1CCC[C@@H]1C(N)=O)C(C)C [896.45] | 1.75
17 | CC(C)C[C@H](NC(=O)[C@@H]1CCCN1)C(=O)N[C@@H](CC(=O)O)C(=O)N[C@@H](Cc1ccccc1)C(=O)N1CCC[C@@H]1C(N)=O [951.12] (H-PLDF[dP]-NH2) | 61.8
18 | CC(C)C[C@@H](C(=O)N[C@@H](CC(=O)O)C(=O)N[C@@H](Cc1ccccc1)C(=O)N1CCC[C@@H]1C(N)=O)n1c(=O)[nH]c2ccccc2c1=O [896.63] | 43.7

same assay, conditions: binding inhibition potency relative to standard compound of SEQ ID NO:3 = 1 (normalized IC50); about one-tenth or less assigned zero

Row | SMILES | Relative Potency
19 | CC(C)C[C@H](NC(=O)Cc1ccccc1)C(=O)N[C@@H](CC(=O)O)C(=O)N[C@@H](Cc1ccc(O)cc1)C(=O)OC(C)(C)C [1040.02] (PhAc-Leu-Asp-Tyr-OtBu) | 14.7
20 | CC(C)CN(CC(=O)Nc1ccccc1)C(=O)CN(CC(=O)O)C(=O)CN(Cc1ccccc1)C(=O)C1CCCC1 [1032.02] | .63
21 | CC(C)C[C@H](NC(=O)Cc1ccccc1)C(=O)N[C@@H](CC(=O)O)C(=O)N[C@H](C(=O)N1CCC[C@@H]1C(N)=O)c1ccccc1 [896.69] (PhAc-LD[Phg][dP]-NH2) | 61
22 | CC(C)C[C@H](NC(=O)Cc1ccccc1)C(=O)N[C@@H](CC(=O)O)C(=O)N[C@@H](Cc1ccccc1)C(=O)N1C[C@@H](O)[C@@H](O)C1 [1070.01] | 194
23 | CC(C)C[C@H](NC(=O)c1cccc2ccccc12)C(=O)N[C@@H](CC(=O)O)C(=O)N[C@H](C(=O)N1CCC[C@@H]1C(N)=O)C(C)C [896.43] | 4.38
24 | CC(C)C[C@H](NC(=O)Cc1ccccc1)C(=O)N[C@@H](CC(=O)O)C(=O)NC1(C(=O)N2CCC[C@@H]2C(N)=O)CCc2ccccc2C1 (some centres unmarked) [896.65] (PhAc-LD[ξAtc][dP]-NH2) | 1.25
25 | CC(C)C[C@H](NC(=O)Cc1ccccc1)C(=O)N[C@@H](CC(=O)O)C(=O)N[C@@H](Cc1ccc(OC(C)(C)C)cc1)C(=O)OC(C)(C)C [1040.01] (PhAc-Leu-Asp-Tyr(tBu)-OtBu) | 2.66
26 | CC(C)C[C@H](NC(=O)Cc1ccccc1)C(=O)N[C@@H](CC(=O)O)C(=O)NC(c1ccccc1)c1ccccc1 [997.01] | 2.66
27 | CC(C)C[C@H](NC(=O)Cc1ccccc1)C(=O)N[C@@H](CC(=O)O)C(=O)N[C@@H]1CCN(C2CCCCC2)C1=O [1057.03] | 3.44
28 | CC(C)C[C@@H](C(=O)N[C@@H](CC(=O)O)C(=O)N[C@@H](Cc1ccccc1)C(=O)N1CCC[C@@H]1C(N)=O)N(C)C(=O)Cc1ccccc1 [1190.07] (PhAc-[NMeL]DF[dP]-NH2) | 318
29 | CC(C)C[C@H](NC(=O)Cc1ccccc1)C(=O)N[C@@H](CC(=O)O)C(=O)N[C@@H](Cc1ccccc1)C(=O)N1CCSCC1 [1111.02] | 450
30 | CC(C)C[C@H](NC(=O)Cc1ccccc1)C(=O)N[C@@H](CC(=O)O)C(=O)N(C)[C@@H](Cc1ccccc1)C(=O)N1CCC[C@@H]1C(N)=O [1190.05] (PhAc-LD[NMeF][dP]-NH2) | 0
31 | CC(C)C[C@H](NC(=O)Cc1ccccc1)C(=O)NC(C(=O)O)C(=O)N[C@@H](Cc1ccccc1)C(=O)N1CCCCC1 (some centres unmarked) [1026.02] | 0
32 | CC(C)C[C@H](NC(=O)Cc1ccccc1)C(=O)N[C@@H](CC(=O)O)C(=O)N[C@H]1CCN(C2CCCCC2)C1=O [1057.02] | 6.57
33 | CC(C)C[C@H](NC(=O)Cc1ccccc1)C(=O)NC(C(=O)N[C@@H](Cc1ccccc1)C(=O)N1CCCCC1)C(C(=O)O)C(=O)O (some centres unmarked) [1026.04] | 2.32
34 | NC(=O)[C@H]1CCCN1C(=O)[C@H](Cc1ccccc1)NC(=O)[C@H](CC(=O)O)NC(=O)[C@H](CC1CCCCC1)NC(=O)Cc1ccccc1 [1160.01] (PhAc-[Cha]DF[dP]-NH2) | 213
35 | CC(C)C[C@H](NC(=O)Cc1ccccc1)C(=O)N[C@@H](CS(N)(=O)=O)C(=O)N[C@@H](Cc1ccccc1)C(=O)N1CCCCC1 [1026.08] | 0
36 | CC(C)C[C@H](NC(=O)Cc1ccccc1)C(=O)N[C@@H](CC(=O)O)C(=O)NCC(=O)N1CCOCC1 [997.16] (PhAc-Leu-Asp-Gly-Morpholide) | 9.23
37 | CC(C)C[C@H](NC(=O)Cc1ccccc1)C(=O)N[C@@H](CC(=O)O)C(=O)NC1Cc2ccccc2N(CC(C)C)C1=O (some centres unmarked) [997.10] | 6.26

same assay, conditions: compared with standard 10-mer of SEQ ID NO:3

Row | SMILES | VLA-4 binding inhibition compared in words
38 | CC(C)C[C@H](NC(=O)[C@@H](N)Cc1ccccc1)C(=O)N[C@@H](CC(=O)O)C(=O)N[C@@H](Cc1ccccc1)C(=O)N1CCC[C@@H]1C(N)=O [Compound ID No. 1092.01] (H-FLDF[dP]-NH2) | binding inhibition better than that of the compound of SEQ ID NO:3
